This note sets out measurements from ChEMBL document CHEMBL4665887, “Identification, Structure-Activity Relationships of Marine-Derived Indolocarbazoles, and a Dual PKCθ/δ Inhibitor with Potent Antipancreatic Cancer Efficacy” (J Med Chem, 2020).

pIC50: −log10 of the molar value. Calls of active or inactive are those of the source. The calls are words filed in the database; no cut-off is given here.

The subject of assay [1] is BXPC-3. Briefly: Induction of apoptosis in human BXPC-3 cells assessed as increase in cleaved caspase-3 level at 0.25 uM incubated for 30 mins by Western blot analysis. The assay is classed as functional, cell-based. For orientation: A western blot detects proteins with antibodies after separation by electrophoresis.
In assay [2] the test system is BXPC-3. Briefly: Reduction in XIAP protein expression in human BXPC-3 cells incubated for 24 hrs by Western blot analysis. The assay is classed as functional, cell-based.
In assay [3] the test system is BXPC-3. Briefly: Antitumor activity against patient-derived pancreatic cancer cells xenografted in BALB/c mouse model of patient-derived xenograft assessed as increase in cleaved caspase-3 levels at 6 mg/kg, iv dosed once every 2 days for 18 days by Western blot analysis. Format: functional, organism-based. The settings on record: Homo sapiens, time 18.0 day. (A xenograft is tissue or cells of one species grown in another, often human tumour cells in immunodeficient mice.)

Assay [4] relates to BXPC-3. The assay can be described thus: Reduction in Bcl-2 protein expression in human BXPC-3 cells incubated for 24 hrs by Western blot analysis. Format: functional, cell-based.
For assay [5], the system named is BXPC-3. Briefly: Induction of apoptosis in human BXPC-3 cells incubated for 24 hrs by PI and annexin V-FITC staining based flow cytometry. The assay is classed as functional, cell-based.
Assay [6] concerns the target PKC alpha and beta-2 (Homo sapiens) (UniProt P17252+P05771). The assay can be described thus: Inhibition of PKCalpha/beta II phosphorylation at T638/T641 residue in human BXPC-3 cells at 1 uM incubated for 4 hrs by Western blot analysis. The assay is classed as cell-based.
For assay [7], the target named is Protein kinase C iota type/zeta type (Homo sapiens) (UniProt P41743+Q05513). Briefly: Inhibition of PKCzeta/lambda phosphorylation at T410/T403 residue in human BXPC-3 cells at 1 uM incubated for 4 hrs by Western blot analysis. Format: cell-based.
Sequence of Protein kinase C iota type/zeta type (Homo sapiens) (P41743 whole entry, looked up): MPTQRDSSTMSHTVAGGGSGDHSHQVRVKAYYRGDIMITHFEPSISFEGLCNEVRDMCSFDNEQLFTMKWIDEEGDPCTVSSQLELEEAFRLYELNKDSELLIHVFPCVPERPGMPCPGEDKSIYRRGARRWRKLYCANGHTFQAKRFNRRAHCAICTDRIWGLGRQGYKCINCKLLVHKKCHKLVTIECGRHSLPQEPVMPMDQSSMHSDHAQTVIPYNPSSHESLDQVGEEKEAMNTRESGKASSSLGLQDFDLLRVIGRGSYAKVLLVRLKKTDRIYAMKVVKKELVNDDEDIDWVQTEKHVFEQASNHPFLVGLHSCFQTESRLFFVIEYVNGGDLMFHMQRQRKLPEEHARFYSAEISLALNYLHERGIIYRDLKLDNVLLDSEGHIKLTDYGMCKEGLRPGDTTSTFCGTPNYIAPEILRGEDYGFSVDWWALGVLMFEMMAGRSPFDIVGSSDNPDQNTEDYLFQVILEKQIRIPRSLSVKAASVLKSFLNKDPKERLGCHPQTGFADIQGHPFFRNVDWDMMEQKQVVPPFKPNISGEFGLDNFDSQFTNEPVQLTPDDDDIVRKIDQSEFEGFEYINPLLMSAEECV
Sequence of Protein kinase C iota type/zeta type (Homo sapiens) (Q05513 whole entry, looked up): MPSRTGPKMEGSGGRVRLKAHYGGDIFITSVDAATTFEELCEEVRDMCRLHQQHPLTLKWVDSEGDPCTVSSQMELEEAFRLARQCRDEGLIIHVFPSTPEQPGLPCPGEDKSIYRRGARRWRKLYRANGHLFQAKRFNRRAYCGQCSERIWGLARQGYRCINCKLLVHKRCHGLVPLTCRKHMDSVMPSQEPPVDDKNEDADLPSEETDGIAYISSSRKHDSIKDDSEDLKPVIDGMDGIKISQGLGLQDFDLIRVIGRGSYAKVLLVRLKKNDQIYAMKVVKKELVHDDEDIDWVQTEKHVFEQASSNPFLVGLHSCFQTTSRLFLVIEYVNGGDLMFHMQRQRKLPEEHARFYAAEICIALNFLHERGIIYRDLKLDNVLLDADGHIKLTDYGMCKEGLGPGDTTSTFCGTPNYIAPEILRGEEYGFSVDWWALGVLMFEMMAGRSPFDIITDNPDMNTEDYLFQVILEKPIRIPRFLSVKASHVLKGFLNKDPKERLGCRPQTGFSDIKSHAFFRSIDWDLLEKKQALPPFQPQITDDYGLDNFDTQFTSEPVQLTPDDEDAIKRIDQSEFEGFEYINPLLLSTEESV
Assay [8] deals with BXPC-3. Briefly: Reduction in Bcl-XL protein expression in human BXPC-3 cells incubated for 24 hrs by Western blot analysis. Format: functional, cell-based.
Assay [9] concerns the target Inhibitor of nuclear factor kappa-B kinase subunit beta (Homo sapiens) (UniProt O14920). The assay can be described thus: Inhibition of IKKbeta phosphorylation in human BXPC-3 cells at 0.5 uM measured within 1 hr by Western blot analysis. The assay is classed as cell-based. The settings on record: time hrs <=1.
Assay [10] has as its system BXPC-3. Briefly: Induction of apoptosis in human BXPC-3 cells assessed as increase in cleaved PARP level at 0.25 uM incubated for 30 mins by Western blot analysis. The assay is classed as functional, cell-based.
For assay [11], the target named is Protein kinase C iota type (Homo sapiens) (UniProt P41743). The assay can be described thus: Inhibition of PKClambda phosphorylation in human BXPC-3 cells at 1 uM incubated for 4 hrs by Western blot analysis. The assay is classed as cell-based.
Sequence of Protein kinase C iota type (Homo sapiens) (P41743 whole entry): as the sequence (P41743 whole entry, looked up) above
The target of assay [12] is Transcription factor p65 (Homo sapiens) (UniProt Q04206). Briefly: Inhibition of p65 phosphorylation in human BXPC-3 cells at 0.5 uM measured within 1 hr by Western blot analysis. The assay is classed as cell-based. Particulars: time hrs <=1.
Assay [13] has as its target Protein kinase C zeta type (Homo sapiens) (UniProt Q05513). The assay can be described thus: Inhibition of PKCzeta phosphorylation in human BXPC-3 cells at 1 uM incubated for 4 hrs by Western blot analysis. The assay is classed as cell-based.
In assay [14] the test system is BXPC-3. Briefly: Antitumor activity against patient-derived pancreatic cancer cells xenografted in BALB/c mouse model of patient-derived xenograft assessed as increase in cleaved caspase- levels at 6 mg/kg, iv dosed once every 2 days for 18 days by Western blot analysis. The assay is classed as functional, organism-based. The settings on record: Homo sapiens, time 18.0 day.

Assay [15] addresses Protein kinase C beta type (Homo sapiens) (UniProt P05771). The assay can be described thus: Inhibition of PKC(pan)/beta II phosphorylation at S660 residue in human BXPC-3 cells at 1 uM incubated for 4 hrs by Western blot analysis. The assay is classed as cell-based.
Assay [16] deals with Protein kinase C delta type (Homo sapiens, UniProt Q05655). Briefly: Inhibition of PKCdelta phosphorylation at T505 residue in human BXPC-3 cells at 1 uM incubated for 4 hrs by Western blot analysis. Format: cell-based.
Sequence of Protein kinase C delta type (Q05655 whole entry, looked up): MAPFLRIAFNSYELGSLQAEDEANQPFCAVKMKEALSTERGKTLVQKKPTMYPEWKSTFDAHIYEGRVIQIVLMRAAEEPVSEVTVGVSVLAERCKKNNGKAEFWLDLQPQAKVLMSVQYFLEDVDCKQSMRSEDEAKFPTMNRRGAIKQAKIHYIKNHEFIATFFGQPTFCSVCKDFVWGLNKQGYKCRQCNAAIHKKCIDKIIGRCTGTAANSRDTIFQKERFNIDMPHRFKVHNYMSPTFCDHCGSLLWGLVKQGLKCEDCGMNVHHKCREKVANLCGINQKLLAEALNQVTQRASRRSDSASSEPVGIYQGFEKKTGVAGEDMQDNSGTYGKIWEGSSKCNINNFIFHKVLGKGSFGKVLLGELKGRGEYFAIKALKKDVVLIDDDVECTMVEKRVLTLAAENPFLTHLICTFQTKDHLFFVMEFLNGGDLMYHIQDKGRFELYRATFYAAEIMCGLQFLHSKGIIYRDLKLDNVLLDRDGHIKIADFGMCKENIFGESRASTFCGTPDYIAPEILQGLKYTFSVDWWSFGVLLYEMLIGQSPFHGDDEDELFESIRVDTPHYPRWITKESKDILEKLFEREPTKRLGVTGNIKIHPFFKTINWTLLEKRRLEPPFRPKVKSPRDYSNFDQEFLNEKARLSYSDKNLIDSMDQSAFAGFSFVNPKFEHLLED
The test system of assay [17] is BXPC-3. The assay can be described thus: Antitumor activity against patient-derived pancreatic cancer cells xenografted in BALB/c mouse model of patient-derived xenograft assessed as increased numbers of necrotic cells at 6 mg/kg, iv dosed once every 2 days for 18 days by H and E staining based analysis relative to control. Particulars: Homo sapiens, time 18.0 day. The assay is classed as functional, organism-based.

The target of assay [18] is Inhibitor of nuclear factor kappa-B kinase subunit alpha (Homo sapiens) (UniProt O15111). Briefly: Inhibition of IKKalpha phosphorylation in human BXPC-3 cells at 0.5 uM measured within 1 hr by Western blot analysis. The settings on record: time hrs <=1. Format: cell-based.
Sequence of Inhibitor of nuclear factor kappa-B kinase subunit alpha (Homo sapiens) (O15111 whole entry): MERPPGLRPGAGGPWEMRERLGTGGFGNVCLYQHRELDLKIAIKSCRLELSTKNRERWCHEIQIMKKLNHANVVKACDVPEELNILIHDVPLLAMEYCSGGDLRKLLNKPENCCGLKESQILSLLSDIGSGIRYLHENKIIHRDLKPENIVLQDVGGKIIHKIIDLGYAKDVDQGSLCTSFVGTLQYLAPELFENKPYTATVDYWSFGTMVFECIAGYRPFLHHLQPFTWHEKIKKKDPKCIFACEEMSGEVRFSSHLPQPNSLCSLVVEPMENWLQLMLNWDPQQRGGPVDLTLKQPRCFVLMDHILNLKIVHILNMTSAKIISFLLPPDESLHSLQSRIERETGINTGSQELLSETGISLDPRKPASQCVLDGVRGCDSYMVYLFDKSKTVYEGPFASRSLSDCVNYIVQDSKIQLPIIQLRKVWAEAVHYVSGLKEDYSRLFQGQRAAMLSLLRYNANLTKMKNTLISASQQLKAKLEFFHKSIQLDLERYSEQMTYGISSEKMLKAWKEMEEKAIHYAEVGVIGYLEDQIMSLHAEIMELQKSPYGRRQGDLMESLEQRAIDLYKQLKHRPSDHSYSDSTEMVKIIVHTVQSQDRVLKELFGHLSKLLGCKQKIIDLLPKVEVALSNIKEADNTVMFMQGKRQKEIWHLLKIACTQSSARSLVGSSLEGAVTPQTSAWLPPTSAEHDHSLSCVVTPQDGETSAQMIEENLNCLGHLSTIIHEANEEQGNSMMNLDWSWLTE
Assay [19] concerns the target Protein kinase C alpha type (Homo sapiens) (UniProt P17252). Briefly: Inhibition of PKCalpha phosphorylation in human BXPC-3 cells at 1 uM incubated for 4 hrs by Western blot analysis. The assay is classed as cell-based.
Assay [20] deals with BXPC-3. The assay can be described thus: Antitumor activity against patient-derived pancreatic cancer cells xenografted in BALB/c mouse model of patient-derived xenograft assessed as reduction in p-PKCdelta protein levels at 6 mg/kg, iv dosed once every 2 days for 18 days by Western blot analysis. Format: functional, organism-based. The settings on record: Homo sapiens, time 18.0 day.

The test system of assay [21] is BXPC-3. The assay can be described thus: Induction of apoptosis in human BXPC-3 cells assessed as increase in cleaved caspase-7 level at 0.25 uM incubated for 30 mins by Western blot analysis. Format: functional, cell-based.
For assay [22], the target named is Protein kinase C theta type (Homo sapiens, UniProt Q04759). The assay can be described thus: Inhibition of PKCtheta phosphorylation at T538 residue in human BXPC-3 cells at 0.25 uM incubated for 4 hrs by Western blot analysis. Format: cell-based.
The target of assay [23] is NF-kappa-B inhibitor alpha (Homo sapiens) (UniProt P25963). Briefly: Inhibition of IkappaB-alpha phosphorylation in human BXPC-3 cells at 0.5 uM measured within 1 hr by Western blot analysis. The assay is classed as cell-based. Particulars: time hrs <=1.
In assay [24] the test system is BXPC-3. Briefly: Reduction in Mcl1 protein expression in human BXPC-3 cells incubated for 24 hrs by Western blot analysis. Format: functional, cell-based.
The target of assay [25] is Protein kinase C beta type (Homo sapiens) (UniProt P05771). The assay can be described thus: Inhibition of PKCbeta phosphorylation at S660 residue in human BXPC-3 cells at 1 uM incubated for 4 hrs by Western blot analysis. The assay is classed as cell-based.
Sequence of Protein kinase C beta type (Homo sapiens) (P05771 2-671 limits assumed): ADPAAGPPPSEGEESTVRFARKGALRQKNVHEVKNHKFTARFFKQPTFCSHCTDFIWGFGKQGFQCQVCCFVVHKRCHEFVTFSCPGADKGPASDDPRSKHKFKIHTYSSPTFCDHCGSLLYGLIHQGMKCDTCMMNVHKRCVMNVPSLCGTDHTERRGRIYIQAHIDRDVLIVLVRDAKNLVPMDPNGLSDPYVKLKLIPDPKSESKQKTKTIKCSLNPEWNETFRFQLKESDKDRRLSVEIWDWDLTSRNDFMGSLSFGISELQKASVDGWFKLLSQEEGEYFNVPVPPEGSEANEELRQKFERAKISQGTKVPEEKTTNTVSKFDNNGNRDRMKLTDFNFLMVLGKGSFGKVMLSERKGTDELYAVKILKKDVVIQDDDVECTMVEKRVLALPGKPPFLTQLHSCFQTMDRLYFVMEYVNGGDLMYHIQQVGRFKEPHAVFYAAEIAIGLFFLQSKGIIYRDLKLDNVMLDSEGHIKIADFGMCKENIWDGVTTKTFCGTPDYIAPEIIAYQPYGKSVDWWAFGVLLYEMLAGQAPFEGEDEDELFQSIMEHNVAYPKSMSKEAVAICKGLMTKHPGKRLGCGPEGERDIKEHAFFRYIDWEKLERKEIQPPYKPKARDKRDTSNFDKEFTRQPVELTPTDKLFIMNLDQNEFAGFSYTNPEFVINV
Assay [26] relates to BXPC-3. The assay can be described thus: Induction of apoptosis in human BXPC-3 cells assessed as increase in cleaved caspase-9 level at 0.25 uM incubated for 30 mins by Western blot analysis. Format: functional, cell-based.
Another assay deals with RKO. Briefly: Cytotoxicity in human RKO cells assessed as reduction in cell viability incubated for 24 hrs by CCK8 assay. Format: functional, cell-based. In general terms: Formazan colour is commonly taken as a measure of viable cells.
A further assay concerns NCI-H1299. Briefly: Cytotoxicity in human NCI-H1299 cells assessed as reduction in cell viability incubated for 24 hrs by CCK8 assay. Format: functional, cell-based. The settings on record: NCI-H1299, 24 h.
The subject of another assay is A549. The assay can be described thus: Cytotoxicity in human A549 cells assessed as reduction in cell viability incubated for 24 hrs by CCK8 assay. The assay is classed as functional, cell-based. The settings on record: A549, 24 h.
Another assay relates to MGC-803. The assay can be described thus: Cytotoxicity in human MGC-803 cells assessed as reduction in cell viability incubated for 24 hrs by CCK8 assay. The assay is classed as functional, cell-based. Particulars: MGC-803, 24 h.
Another assay has as its system NCI-H1975. Briefly: Cytotoxicity in human NCI-H1975 cells assessed as reduction in cell viability incubated for 24 hrs by CCK8 assay. The assay is classed as functional, cell-based. The settings on record: NCI-H1975, 24 h.
The next assay has as its system ASPC1. Briefly: Cytotoxicity in human ASPC1 cells assessed as reduction in cell viability incubated for 24 hrs by CCK8 assay. The assay is classed as functional, cell-based. Particulars: ASPC1, 24 h.
A further assay relates to PC-9. The assay can be described thus: Cytotoxicity in human PC-9 cells assessed as reduction in cell viability incubated for 24 hrs by CCK8 assay. Format: functional, cell-based. Particulars: PC-9, 24 h.
Assay [27] concerns BXPC-3. The assay can be described thus: Cytotoxicity in human BXPC-3 cells assessed as reduction in cell viability incubated for 24 hrs by CCK8 assay. The assay is classed as functional, cell-based. The settings on record: BXPC-3, 24 h.

Sequence of Protein kinase C zeta type (Homo sapiens) (Q05513 whole entry): as the sequence (Q05513 whole entry, looked up) above
Sequence of Inhibitor of nuclear factor kappa-B kinase subunit beta (Homo sapiens) (O14920 whole entry): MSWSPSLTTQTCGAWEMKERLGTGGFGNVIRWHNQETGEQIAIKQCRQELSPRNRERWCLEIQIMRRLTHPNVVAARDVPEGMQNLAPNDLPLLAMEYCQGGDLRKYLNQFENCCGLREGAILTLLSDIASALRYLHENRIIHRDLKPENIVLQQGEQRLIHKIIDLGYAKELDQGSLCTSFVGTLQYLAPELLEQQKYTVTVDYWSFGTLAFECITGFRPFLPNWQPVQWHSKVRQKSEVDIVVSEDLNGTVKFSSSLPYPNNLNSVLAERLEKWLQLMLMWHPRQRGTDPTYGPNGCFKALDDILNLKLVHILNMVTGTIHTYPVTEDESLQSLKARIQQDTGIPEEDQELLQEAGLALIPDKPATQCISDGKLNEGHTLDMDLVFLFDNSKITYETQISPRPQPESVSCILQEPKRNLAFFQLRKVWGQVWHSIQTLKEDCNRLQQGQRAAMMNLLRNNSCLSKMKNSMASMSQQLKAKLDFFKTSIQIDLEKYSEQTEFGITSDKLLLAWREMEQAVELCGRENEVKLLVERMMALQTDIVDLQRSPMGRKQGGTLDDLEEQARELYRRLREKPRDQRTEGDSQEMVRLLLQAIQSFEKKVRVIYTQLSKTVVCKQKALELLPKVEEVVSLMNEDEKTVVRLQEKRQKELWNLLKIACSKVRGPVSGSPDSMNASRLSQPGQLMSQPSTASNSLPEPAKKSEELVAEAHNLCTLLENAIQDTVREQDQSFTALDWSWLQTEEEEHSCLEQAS

On to `CN[C@@H]1C[C@H]2O[C@@](C)([C@@H]1OC)n1c3ccccc3c3c4c(c5c6ccccc6n2c5c31)C(=O)NC4=O` (stereo in doubt; 15), for which the outcome in the assay with BXPC-3 [1], in the assay on BXPC-3 [3], in the assay with BXPC-3 [10], in the assay on BXPC-3 [14], in the assay with BXPC-3 [17] and with BXPC-3 [20] was Active. Further, the outcome in the assay on BXPC-3 [21] and in the assay with BXPC-3 [26] was Active. Also, the Activity entry with BXPC-3 [2], in the assay on BXPC-3 [4], in the assay with BXPC-3 [5], with BXPC-3 [8] and in the assay with BXPC-3 [24] was “Dose-dependent effect” in each case. Also, the inhibition result in [6], in [7], in assay [11], in assay [13], in assay [15] and in assay [19] was “inactive” throughout. For the same compound, the inhibition entry in [25] is “inactive”. Further, the inhibition entry in [9], in [12], in assay [16], in [18], in assay [22] and in assay [23] was “Active” each time.

For orientation: pIC50 means the negative decadic logarithm of the IC50, by convention in mol/L. For the compound `CN1CCN(c2nc(C3=C(c4c[nH]c5ccccc45)C(=O)NC3=O)c3ccccc3n2)CC1` [SOTRASTAURIN], the pIC50 with RKO, in the assay with NCI-H1299, with A549, in the assay with MGC-803, with NCI-H1975 and with ASPC1 was below 5.49 in each case. Further, the negative-log IC50 (pIC50) in the assay with PC-9 and with BXPC-3 [27] was below 5.49 each time.
